# From US10351525B2, “Beta lactamase inhibitors” (Oxford University Innovation Limited, priority 2014, dated 2019)
# Experiments:
# SPM-1 = SPM-1 (Pseudomonas aeruginosa, UniProt Q8G9Q0); experiment: MBL screening assay (IC50), SPM-1; assay type: biochemical
# Description: (§1) Recombinant forms of NDM-1, NDM-1 M67C, VIM-1, VIM-2, SPM-1, IMP-1 and BcII MBLs were produced in Escherichia coli as described in J. Med. Chem. 56, 6945-6953 (2013) and Makena et al Chem MechCHem 8, 1923-9 (2013). Purified VIM-2 protein was dialysed into fresh crystallization buffer (50 mM HEPES pH 7.5, 150 mM NaCl and […], concentrated to 7.5 mg/mL and used for crystallographic analyses.
# (§2) Kinetic and inhibition analyses and UV-VIS studies^16 against bacterial MBLs were performed as described by Van Berkel et al in J. Med. Chem. 56, 6945-6953 (2013) and Makena et al Chem MechCHem 8, 1923-9 (2013).
# (§3) The experiments were performed by using a NovaStar microplate reader (using path length correction) and were performed at r.t. (24-25° C.). All enzymes and substrates were dissolved in the assay buffer: 50 mM HEPES-NaOH buffer (pH 7.2) supplemented with 1 μg/mL BSA (to minimize the denaturation of the enzyme), 1 μM ZnSO4 and 0.01% Triton 100. Screening was carried out against a panel of MBLs including NDM-1, VIM-1, VIM-2, SPM-1 (Sao Paulo MBL-1) and IMP-1 and the non-clinically relevant model MBL Bacillus cereus (BcII).
# (§4) The kinetic values determined were the means from at least three independent measurements. […] The IC50 values were determined from the plot of activity (steady state rate) versus inhibitor concentration using the same software. […]
# hGlyoxylase II = target: T1, hGlyoxylase II (Homo sapiens, UniProt Q16775); experiment: hHAGH (human Glyoxylase II) assay; assay type: biochemical; as to Inhibition verdict: key: N.I.—not inhibited
# T1 construct: purchased R&D Systems 5944-GO
# Description: (§5) To investigate the selectivity of ML302/ML302F for bacterial MBLs, activity was tested against TEM-1 (a Class A SBL), PBP-5 (penicillin-binding protein 5 or dacA) and PBP-6 (penicillin-binding protein 6, or dacC) from E. coli, hHAT (human histone acetyltransferase) and hHDAC (human histone deacetylase). TEM-1, PBP-5 and -6 and hHAT are known to be inhibited by rhodanines. Selectively against hACE-2 (Angiotensin converting enzyme 2) and hHAGH (Hydroxyacylglutathione hydrolase, human Glyoxylase II) was also tested.
# (§6) The inhibition analyses for human histone acetyltransferases (HAT), HDAC hHDAC (human histone deacetylase), hACE-2 (Angiotensin converting enzyme 2) and hHAGH (Hydroxyacylglutathione hydrolase, human Glyoxylase II) were performed using the commercially available HAT Assay Kit (Active Motif, catalogue No. 56100 (2009)), hHDAC (Active Motif, catalogue No. 56200 (2013)), hACE-2 (ACE-2 (R&D Systems) and hHAGH ((R&D Systems).
# • Assay Buffer: 50 mM Tris, 250 mM NaCl, pH 7.5 • Recombinant Human Glyoxalase II (rhGlyoxalase II) (Catalog #5944-GO) • Substrate: S-Lactoylglutathione (Sigma, Catalog # L7140), 100 mM stock in deionized water • 5, 5′-dithiobis(2-nitrobenzoic acid) (DTNB) (Sigma, Catalog # D8130), 10 mM stock in DMSO • 96-well Clear Plate (Costar, Catalog #92592) • Plate Reader (Model: SpectraMax Plus by Molecular Devices) or equivalent Assay: 1. Dilute rhGlyoxalase II to 0.4 ng/μL in Assay Buffer. 2. Dilute Substrate to 2 mM in Assay Buffer with 400 IJM DTNB to form Substrate Mixture. 3. Load 50 μL of 0.4 ng/μL rhGlyoxalase II into a plate and start the reaction by loading 50 μL of Substrate Mixture. Include a Substrate Blank containing 50 μL of Assay Buffer and 50 μL of Substrate Mixture. 4. Read at 405 nm (absorbance) in kinetic mode for 5 minutes. 5. Calculate specific activity:
# [formula] [formula] [formula] [formula] Note: the output of many spectrophotometers is in mOD. Final Assay Conditions Per Well: rhGlyoxalase II: […] S-Lactoylglutathione: 1 mM DTNB: 200 μM
# hHDAC = experiment: Inhibition studies hHDAC; assay type: biochemical, human; as to Inhibition verdict: key: N.I.—not inhibited
# Description: as §5, §6
# NDM-1 = target: T2, NDM-1 (Klebsiella pneumoniae, UniProt C7C422); experiment: biochemical
# T2 construct: made in house; host or cells: Escherichia coli
# Description: as §1, §2, §3, §4
# hHAT = target: T3, hHAT (Homo sapiens, UniProt Q09472); experiment: Inhibition studies hHAT (HAT Assay Kit); assay type: biochemical; as to Inhibition verdict: key: N.I.—not inhibited
# T3 construct: purchased Active Motif 56100
# T3 sequence (Q09472 1284-1673 limits assumed): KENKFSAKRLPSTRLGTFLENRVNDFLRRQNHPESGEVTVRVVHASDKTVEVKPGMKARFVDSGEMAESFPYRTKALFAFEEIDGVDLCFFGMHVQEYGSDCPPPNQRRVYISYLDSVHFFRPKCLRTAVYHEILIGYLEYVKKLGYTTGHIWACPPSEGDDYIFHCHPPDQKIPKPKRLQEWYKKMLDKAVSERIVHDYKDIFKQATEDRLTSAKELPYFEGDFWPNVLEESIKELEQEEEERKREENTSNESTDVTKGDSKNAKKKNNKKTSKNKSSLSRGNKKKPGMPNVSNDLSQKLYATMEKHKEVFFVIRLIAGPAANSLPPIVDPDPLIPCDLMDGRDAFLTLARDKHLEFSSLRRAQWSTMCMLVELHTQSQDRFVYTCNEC
# Description: as §5, §6
# P.. stuartii 67 = experiment: MIC of MEM with and without ML302F (1:8), VIM-1 producer; assay type: cell-based; settings: Providencia stuartii; P. stuartii 67 (VIM-1); MEM alone or with ML302F (1:8)
# Description: (§7) In a further study, antimicrobial activities of MEM and ML302F alone and in combination were assessed in-vitro against 31 VIM-producing clinical isolates.
# K. pneumoniae GR54 = experiment: as above; assay type: cell-based; settings: Klebsiella pneumoniae
# Description: as §7
# P. stuartii 70 = experiment: as above; assay type: cell-based; settings: Providencia stuartii; P. stuartii 70 (VIM-1); MEM alone or with ML302F (1:8)
# Description: as §7
# K. pneumoniae 177 = experiment: as above; assay type: cell-based; settings: Klebsiella pneumoniae; K. pneumoniae 177 (VIM-1); MEM alone or with ML302F (1:8)
# Description: as §7
SMILES,IC50 (SPM-1) [nM],Inhibition verdict (hGlyoxylase II),RA (residual activity) (hGlyoxylase II) [%],Inhibition verdict (hHDAC),RA (residual activity) (hHDAC) [%],IC50 (NDM-1) [µM],Inhibition verdict (hHAT),RA (residual activity) (hHAT) [%],MIC (P.. stuartii 67) [µg/mL],MIC (K. pneumoniae GR54) [µg/mL],MIC (P. stuartii 70) [µg/mL],MIC (K. pneumoniae 177) [µg/mL]
"CN1CCN(NC(=O)CN2C(=O)C(=Cc3c(Cl)ccc(Cl)c3Cl)SC2=S)CC1 (mixture of isomers) [ML302, N-(4-Methylpiperazin-1-yl)-2-(4-oxo-2-thioxo-5-(2,3,6-trichlorobenzylidene)thiazolidin-3-yl)acetamide]",1320 ± 620,N.I.,98 ± 3,N.I.,108 ± 3,9.44 ± 1.44,N.I.,93 ± 15,–,–,–,–
"C[C@@H](O)[C@H]1C(=O)N2C(C(=O)O)=C(S[C@@H]3CN[C@H](C(=O)N(C)C)C3)[C@H](C)[C@H]12 [Meropenem, meropenem]",–,–,–,–,–,–,–,–,8,128,8,1
"O=C(O)C(S)=Cc1c(Cl)ccc(Cl)c1Cl (racemic) [ML302F, 2-Mercapto-3-(2,3,6-trichlorophenyl)acrylic acid]",1760 ± 510,N.I.,95 ± 6,N.I.,116 ± 7,1.05 ± 0.3,N.I.,85 ± 9,–,–,–,–
